This assay addresses JAK2 (JH1 domain-catalytic, Y1007F, Y1008F) kinase (Homo sapiens (Human), UniProt O60674, Y1007F/Y1008F). The experiment in a line: JAK2 JH1 Domain Binding Assay. The following applies: qPCR readout. The procedure, abridged: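 Competitive binding format: test compound, DNA-tagged JAK2 JH1 (Y1007F/Y1008F; HEK293-expressed NFkB fusion) and ligand-coated magnetic beads incubated 1 h at room temperature. Kinase retained on beads released with 0.5 μmol/L non-biotinylated ligand, then measured by qPCR.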

Structures are written as SMILES.

Sequence of JAK2 (JH1 domain-catalytic, Y1007F, Y1008F) kinase (O60674 849-1124 Y1007F/Y1008F): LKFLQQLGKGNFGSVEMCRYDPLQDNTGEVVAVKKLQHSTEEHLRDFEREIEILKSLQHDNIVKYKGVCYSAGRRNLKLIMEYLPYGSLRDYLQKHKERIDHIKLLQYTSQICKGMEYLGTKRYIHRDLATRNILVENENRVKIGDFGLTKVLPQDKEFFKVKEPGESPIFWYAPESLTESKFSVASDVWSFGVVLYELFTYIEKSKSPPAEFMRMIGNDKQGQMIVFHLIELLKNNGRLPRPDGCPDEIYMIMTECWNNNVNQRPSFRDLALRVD

With `Cn1cc(C(F)(F)F)cc(NC(=O)N2CCO[C@H]3CN(c4cnc5[nH]ccc5n4)CC[C@@H]32)c1=O` [Example I-128-a, (4aS,8aS)-N-(1-methyl-2-oxo-5-(trifluoromethyl)-1,2-dihydropyridin-3-yl)-6-(5H-pyrrolo[2,3-b]pyrazin-2-yl)octahydro-1H-pyrido[3,4-b][1,4]oxazine-1-carboxamide], the Kd was 0.01 to 0.05 µM.
Then `COc1n[nH]c2ncc(N3CC[C@H]4[C@H](C3)OCCN4C(=O)Nc3cc(C(F)(F)F)cn(C)c3=O)cc12` (single isomer, unassigned) [Example I-169-a], with 0.01 to 0.05 µM; and `COCc1cc2nc(N3CCC(N(C)C(=O)Nc4cc(C(F)(F)F)cn(C)c4=O)CC3)cnc2[nH]1` [Example I-77, 1-(1-(6-(methoxymethyl)-5H-pyrrolo[2,3-b]pyrazin-2-yl)piperidin-4-yl)-1-methyl-3-(1-methyl-2-oxo-5-(trifluoromethyl)-1,2-dihydropyridin-3-yl)urea], with less than 0.01 µM; and `CC(=O)Nc1cnc(N2CCC(CC(=O)Nc3cccc(C(F)(F)F)c3)CC2)cn1` [Example I-6, 2-(1-(5-acetamidopyrazin-2-yl)piperidin-4-yl)-N-(3-(trifluoromethyl)phenyl)acetamide], with 0.05 to 1 µM.
Under `COc1c[nH]c2ncc(N3CC[C@H]4[C@H](C3)OCCN4C(=O)Nc3cc(C(F)(F)F)cn(C)c3=O)nc12` [Example I-163-a, (4aS,8aS)-6-(7-methoxy-5H-pyrrolo[2,3-b]pyrazin-2-yl)-N-(1-methyl-2-oxo-5-(trifluoromethyl)-1,2-dihydropyridin-3-yl)octahydro-1H-pyrido[3,4-b][1,4]oxazine-1-carboxamide] stands 0.01 to 0.05 µM.
Under `CN(C(=O)Nc1cc(C(F)(F)F)cn(C)c1=O)C1CCN(c2cnc3[nH]ccc3n2)CC1` [Example I-15, 1-(1-(5H-pyrrolo[2,3-b]pyrazin-2-yl)piperidin-4-yl)-1-methyl-3-(1-methyl-2-oxo-5-(trifluoromethyl)-1,2-dihydropyridin-3-yl)urea] stands less than 0.01 µM; under `CN(C(=O)Nc1cc(C(F)(F)F)cn(C)c1=O)C1CCN(c2cnc3[nH]cc(N4CCOCC4)c3n2)CC1` [Example I-124, 1-methyl-3-(1-methyl-2-oxo-5-(trifluoromethyl)-1,2-dihydropyridin-3-yl)-1-(1-(7-morpholino-5H-pyrrolo[2,3-b]pyrazin-2-yl)piperidin-4-yl)urea], less than 0.01 µM; under `CN1CCN(c2n[nH]c3ncc(N4CC[C@@H](N(C)C(=O)Nc5cc(C(F)(F)F)cn(C)c5=O)C(F)(F)C4)cc23)CC1` (single isomer, unassigned) [Example I-154-a, (R)- or (S)-1-(3,3-difluoro-1-(3-(4-methylpiperazin-1-yl)-1H-pyrazolo[3,4-b]pyridin-5-yl)piperidin-4-yl)-1-methyl-3-(1-methyl-2-oxo-5-(trifluoromethyl)-1,2-dihydropyridin-3-yl)urea], less than 0.01 µM.
Compound `COc1n[nH]c2ncc(N3CC[C@@H](N(C)C(=O)Nc4cc(C(F)(F)F)cn(C)c4=O)[C@H](F)C3)cc12` [Example I-84-b, 1-((3R,4R)-3-fluoro-1-(3-methoxy-1H-pyrazolo[3,4-b]pyridin-5-yl)piperidin-4-yl)-1-methyl-3-(1-methyl-2-oxo-5-(trifluoromethyl)-1,2-dihydropyridin-3-yl)urea] showed a dissociation constant (Kd) of less than 0.01 µM.
Then `Cn1cc(C(F)(F)F)cc(NC(=O)N2CC=CC23CCN(c2cnc4[nH]cc(F)c4n2)CC3)c1=O` [Example I-93, 8-(7-fluoro-5H-pyrrolo[2,3-b]pyrazin-2-yl)-N-(1-methyl-2-oxo-5-(trifluoromethyl)-1,2-dihydropyridin-3-yl)-1,8-diazaspiro[4.5]dec-3-ene-1-carboxamide], with 0.01 to 0.05 µM; and `CN(C(=O)Nc1cc(C(F)(F)F)cn(C)c1=O)[C@H]1C[C@H]2C[C@@H]1CN2c1cnc2[nH]ccc2n1` [Example I-43-b, 1-((1R,4R,5S)-2-(5H-pyrrolo[2,3-b]pyrazin-2-yl)-2-azabicyclo[2.2.1]heptan-5-yl)-1-methyl-3-(1-methyl-2-oxo-5-(trifluoromethyl)-1,2-dihydropyridin-3-yl)urea], with 0.01 to 0.05 µM; and `COc1c[nH]c2ncc(N3CC[C@@H](N(C)C(=O)Nc4cc(C(F)(F)F)cn(C)c4=O)[C@@H](F)C3)nc12` [Example I-152, 1-((3S,4R)-3-fluoro-1-(7-methoxy-5H-pyrrolo[2,3-b]pyrazin-2-yl)piperidin-4-yl)-1-methyl-3-(1-methyl-2-oxo-5-(trifluoromethyl)-1,2-dihydropyridin-3-yl)urea], with less than 0.01 µM.
The compound `CN(C(=O)Nc1cc(C(F)(F)F)cn(C)c1=O)[C@@H]1CCN(c2cnc3[nH]nc(OC4COC4)c3c2)C[C@@H]1F` [Example I-101-a, 1-((3S,4R)-3-fluoro-1-(3-(oxetan-3-yloxy)-1H-pyrazolo[3,4-b]pyridin-5-yl)piperidin-4-yl)-1-methyl-3-(1-methyl-2-oxo-5-(trifluoromethyl)-1,2-dihydropyridin-3-yl)urea] displayed a Kd of 1 to 5 µM.
`CC(=O)Nc1cnc(N2CC[C@@H](N(C)C(=O)Nc3cc(C(F)(F)F)cn(C)c3=O)C(F)(F)C2)cn1` (single isomer, unassigned) [Example I-35-a] gave a dissociation constant (Kd) of less than 0.01 µM.
Then `CN(C(=O)Nc1cc(C2CC2)cn([C@H]2CCCOC2)c1=O)C1CCN(c2cnc3[nH]ncc3c2)CC1` (single isomer, unassigned) [Example I-183-a, (S)- or (R)-1-(1-(1H-pyrazolo[3,4-b]pyridin-5-yl)piperidin-4-yl)-3-(5-cyclopropyl-2-oxo-1-(tetrahydro-2H-pyran-3-yl)-1,2-dihydropyridin-3-yl)-1-methylurea], with less than 0.01 µM; and `CN(C(=O)Nc1cc(C(F)(F)F)cn(C)c1=O)[C@H]1CC=C(c2cnc3[nH]ccc3n2)CC1` (single isomer, unassigned) [Example I-82-b], with less than 0.01 µM; and `CO[C@H]1CN(c2cnc3[nH]ncc3c2)CC[C@H]1N(C)C(=O)Nc1cc(C(F)(F)F)cn(C)c1=O` [Example I-88-a, 1-((3S,4R)-3-methoxy-1-(1H-pyrazolo[3,4-b]pyridin-5-yl)piperidin-4-yl)-1-methyl-3-(1-methyl-2-oxo-5-(trifluoromethyl)-1,2-dihydropyridin-3-yl)urea], with less than 0.01 µM.
Under `Cc1cc2nc(N3CCC(N(C)C(=O)Nc4cc(C(F)(F)F)cn(C)c4=O)C(F)(F)C3)cnc2[nH]1` (single isomer, unassigned) [Example I-37-b, (S)- or (R)-1-(3,3-difluoro-1-(6-methyl-5H-pyrrolo[2,3-b]pyrazin-2-yl)piperidin-4-yl)-1-methyl-3-(1-methyl-2-oxo-5-(trifluoromethyl)-1,2-dihydropyridin-3-yl)urea] stands less than 0.01 µM; under `CN(C(=O)Nc1cc(C(F)(F)F)cn(C)c1=O)C1CCN(c2cnc3[nH]cc(C#N)c3n2)CC1` [Example I-59, 1-(1-(7-cyano-5H-pyrrolo[2,3-b]pyrazin-2-yl)piperidin-4-yl)-1-methyl-3-(1-methyl-2-oxo-5-(trifluoromethyl)-1,2-dihydropyridin-3-yl)urea], less than 0.01 µM.

These data come from patent publication US20240116892A1, “HETEROCYCLIC AMIDE AND UREA COMPOUNDS AS JAK2 INHIBITORS” (Ajax Therapeutics, Inc., priority 2022, published 2024).
